ChEMBL document CHEMBL4393659, “Insights into the chemistry and therapeutic potential of furanones: A versatile pharmacophore” (Eur J Med Chem, 2019)
Values after ≈ are worked out from the molar mass of the structure shown.

Tests used:
[1] = Ulcerogenicity in Wistar rat assessed as gastric lesions by measuring ulcer severity index at 60 mg/kg , po measured after 17 hrs relative to control; format: toxicity, organism-based; details: in vivo
Candida albicans [2] = assay: Antifungal activity against Candida albicans assessed as inhibition of fungal cell growth incubated for 72 hrs by disk diffusion method relative to control; format: functional
[3] = target: Cyclin-dependent kinase 1/cyclin B1 (Homo sapiens, UniProt P06493); assay: Inhibition of CDK1/cyclinB (unknown origin); format: protein-complex assay
[4] = target: Glycogen synthase kinase-3 (Homo sapiens, UniProt P49840+P49841); assay: Inhibition of GSK3alpha/beta (unknown origin); format: protein assay
[5] = target: Cyclin-dependent kinase 5/CDK5 activator 1 (Homo sapiens, UniProt Q00535); assay: Inhibition of CDK5/p25 (unknown origin); format: protein-complex assay
[6] = target: Prostaglandin G/H synthase 2 (Oryctolagus cuniculus, UniProt O02768); assay: Inhibition of COX2 in rabbit whole blood assessed as reduction of LPS-induced PGE2 accumulation at 10 to 10000 nM preincubated with LPS followed by compound addition and incubated for 6 or 24 hrs by EIA method; format: tissue-based
[7] = target: Prostaglandin G/H synthase 2 (Cavia porcellus, UniProt P70682); assay: Inhibition of COX2 in guinea pig blood assessed as reduction of LPS-induced PGE2 accumulation at 10 to 10000 nM preincubated with LPS followed by compound addition and incubated for 6 or 24 hrs by EIA method; format: tissue-based
Mus musculus = assay: Antiinflammatory activity in carrageenan-induced C57Bl/6 mouse model of inflammation assessed as inhibition of PGE2 accumulation in air pouch at 0.1 to 10 mg/kg , po pretreated with carrageenan for 20 hrs and followed by compound administration and measured after 4 hrs; format: functional; details: C57B1/6, po
Phospholipase A2 = Phospholipase A2 (Apis mellifera, UniProt P00630); assay: Inhibition of bee venom phospholipase A2
Rattus norvegicus = assay: Antiinflammatory activity in rat assessed as inhibition of carrageenan-induced paw edema at 20 mg/kg , po incubated for 30 mins followed by carrageenan treatment further incubated for 3 hrs by plethysmometer relative to ibuprofen; format: functional
Aspergillus fumigatus [8] = assay: Antifungal activity against Aspergillus fumigatus 231 assessed as reduction in fungal cell viability measured after 24 and 72 hrs by photometry; format: functional
Nakaseomyces glabratus = assay: Antifungal activity against Candida glabrata 20/I assessed as reduction in fungal cell viability measured after 24 and 72 hrs by photometry; format: functional
Candida albicans [9] = assay: Antifungal activity against Candida albicans ATCC 44859 assessed as reduction in fungal cell viability measured after 24 and 48 hrs by photometry; format: functional
Aspergillus fumigatus [10] = assay: Antifungal activity against Aspergillus fumigatus assessed as reduction in fungal cell viability by broth dilution method; format: functional
[11] = test system: Trichophyton mentagrophytes; assay: Antifungal activity against Trichophyton mentagrophytes 445 assessed as reduction in fungal cell viability measured after 72 and 120 hrs by photometry; format: functional
Candida tropicalis = assay: Antifungal activity against Candida tropicalis 156 assessed as reduction in fungal cell viability measured after 24 and 72 hrs by photometry; format: functional
Trichosporon beigelii = assay: Antifungal activity against Trichosporon beigelii 1188 assessed as reduction in fungal cell viability measured after 24 and 72 hrs by photometry; format: functional
Lichtheimia corymbifera [12] = assay: Antifungal activity against Absidia corymbifera assessed as reduction in fungal cell viability by broth dilution method; format: functional
Lichtheimia corymbifera [13] = assay: Antifungal activity against Absidia corymbifera 272 assessed as reduction in fungal cell viability measured after 24 and 72 hrs by photometry; format: functional
Pichia kudriavzevii = assay: Antifungal activity against Candida krusei E28 assessed as reduction in fungal cell viability measured after 24 and 48 hrs by photometry; format: functional
MOLT-4F = assay: Antiproliferative activity against human MOLT4F cells assessed as reduction in cell viability incubated for 72 hrs by coulter counter method; format: functional, cell-based
L1210 = assay: Antiproliferative activity against mouse L1210 cells assessed as reduction in cell viability incubated for 48 hrs by coulter counter method; format: functional, cell-based; details: L1210, 48 h
MT4 = assay: Antiproliferative activity against human MT4 cells assessed as reduction in cell viability; format: functional, cell-based
CCRF-CEM = assay: Antiproliferative activity against human CEM cells assessed as reduction in cell viability incubated for 48 hrs by coulter counter method; format: functional, cell-based
Scedosporium boydii = assay: Antifungal activity against Pseudallescheria boydii BMU04772 assessed as reduction in fungal cell growth incubated for 24 hrs by broth dilution method; format: functional; details: BMU04772, 24 h
Fusarium graminearum = assay: Antifungal activity against Gibberella zeae CGMCC 3.2873 assessed as reduction in fungal cell growth incubated for 24 hrs by broth dilution method; format: functional; details: CGMCC 3.2873, 24 h
Pyricularia oryzae = assay: Antifungal activity against Pyricularia oryzae CGMCC 3.3283 assessed as reduction in fungal cell growth incubated for 24 hrs by broth dilution method; format: functional; details: CGMCC 3.3283, 24 h
Fusarium oxysporum = assay: Antifungal activity against Fusarium oxysporum CGMCC 3.2830 assessed as reduction in fungal cell growth incubated for 24 hrs by broth dilution method; format: functional; details: CGMCC 3.2830, 24 h
MAC16 [14] = assay: Antitumor activity in mouse MAC16 cells xenografted in NMRI mouse assessed as reduction in tumor weight administered after 2 days of transplantation and measured after 7 day; format: functional
MAC13 = assay: Antiproliferative activity against mouse MAC13 cells assessed as reduction in cell viability incubated for 3 days by MTT assay; format: functional, cell-based; details: MAC13, 72 h
MAC16 [15] = assay: Antiproliferative activity against mouse MAC16 cells assessed as reduction in cell viability incubated for 3 days by MTT assay; format: functional, cell-based; details: MAC16, 72 h
CYP3A4 = assay: Inhibition of CYP3A4 in Sprague-Dawley rat liver microsome assessed as remaining activity by measuring 1'-hydroxylation of midazolam at 3 x 10^-5 M after 20 mins; format: ADME; details: liver microsomes, probe midazolam (1'-hydroxylation), read-out: INH

Sequence of Cyclin-dependent kinase 5/CDK5 activator 1 (Q00535 whole entry): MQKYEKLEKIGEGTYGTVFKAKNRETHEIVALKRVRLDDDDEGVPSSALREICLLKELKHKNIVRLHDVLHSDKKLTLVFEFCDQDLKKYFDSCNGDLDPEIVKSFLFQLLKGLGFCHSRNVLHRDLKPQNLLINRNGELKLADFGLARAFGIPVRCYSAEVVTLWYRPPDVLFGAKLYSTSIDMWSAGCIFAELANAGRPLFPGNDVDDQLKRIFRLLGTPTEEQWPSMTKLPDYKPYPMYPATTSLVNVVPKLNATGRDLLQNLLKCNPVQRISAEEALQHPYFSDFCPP
Sequence of Cyclin-dependent kinase 5/CDK5 activator 1 (Q15078 whole entry, further chain): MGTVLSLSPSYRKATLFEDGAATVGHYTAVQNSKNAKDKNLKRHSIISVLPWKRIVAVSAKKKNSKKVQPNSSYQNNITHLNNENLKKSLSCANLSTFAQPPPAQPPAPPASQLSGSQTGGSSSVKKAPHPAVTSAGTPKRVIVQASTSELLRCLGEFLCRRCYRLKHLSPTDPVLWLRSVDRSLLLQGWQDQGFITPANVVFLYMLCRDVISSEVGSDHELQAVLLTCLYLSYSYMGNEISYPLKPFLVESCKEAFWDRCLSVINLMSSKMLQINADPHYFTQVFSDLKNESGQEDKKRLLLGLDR
Sequence of Prostaglandin G/H synthase 2 (Oryctolagus cuniculus, UniProt O02768) (O02768 whole entry): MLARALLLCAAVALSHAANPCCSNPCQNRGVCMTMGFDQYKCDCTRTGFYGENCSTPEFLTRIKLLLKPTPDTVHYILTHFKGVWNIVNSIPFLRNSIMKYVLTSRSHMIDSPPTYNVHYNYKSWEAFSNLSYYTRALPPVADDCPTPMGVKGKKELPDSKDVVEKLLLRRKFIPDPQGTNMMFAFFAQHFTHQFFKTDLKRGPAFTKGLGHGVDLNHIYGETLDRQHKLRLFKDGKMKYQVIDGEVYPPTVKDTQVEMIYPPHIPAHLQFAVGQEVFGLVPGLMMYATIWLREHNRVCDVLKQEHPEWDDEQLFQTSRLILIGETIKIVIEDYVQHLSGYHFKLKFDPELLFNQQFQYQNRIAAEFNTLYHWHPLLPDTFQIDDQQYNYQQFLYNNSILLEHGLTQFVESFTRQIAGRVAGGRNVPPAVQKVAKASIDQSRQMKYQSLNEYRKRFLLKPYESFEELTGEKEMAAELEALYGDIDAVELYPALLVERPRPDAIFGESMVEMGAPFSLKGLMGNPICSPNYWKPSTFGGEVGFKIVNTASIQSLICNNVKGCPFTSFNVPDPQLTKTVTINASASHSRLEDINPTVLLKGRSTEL
Sequence of Phospholipase A2 (P00630 whole entry): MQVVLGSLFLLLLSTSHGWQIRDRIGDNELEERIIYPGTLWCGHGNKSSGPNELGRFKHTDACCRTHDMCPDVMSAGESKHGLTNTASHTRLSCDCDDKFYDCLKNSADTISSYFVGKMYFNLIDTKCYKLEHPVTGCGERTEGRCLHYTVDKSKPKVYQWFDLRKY
Sequence of Prostaglandin G/H synthase 2 (Cavia porcellus, UniProt P70682) (P70682 whole entry): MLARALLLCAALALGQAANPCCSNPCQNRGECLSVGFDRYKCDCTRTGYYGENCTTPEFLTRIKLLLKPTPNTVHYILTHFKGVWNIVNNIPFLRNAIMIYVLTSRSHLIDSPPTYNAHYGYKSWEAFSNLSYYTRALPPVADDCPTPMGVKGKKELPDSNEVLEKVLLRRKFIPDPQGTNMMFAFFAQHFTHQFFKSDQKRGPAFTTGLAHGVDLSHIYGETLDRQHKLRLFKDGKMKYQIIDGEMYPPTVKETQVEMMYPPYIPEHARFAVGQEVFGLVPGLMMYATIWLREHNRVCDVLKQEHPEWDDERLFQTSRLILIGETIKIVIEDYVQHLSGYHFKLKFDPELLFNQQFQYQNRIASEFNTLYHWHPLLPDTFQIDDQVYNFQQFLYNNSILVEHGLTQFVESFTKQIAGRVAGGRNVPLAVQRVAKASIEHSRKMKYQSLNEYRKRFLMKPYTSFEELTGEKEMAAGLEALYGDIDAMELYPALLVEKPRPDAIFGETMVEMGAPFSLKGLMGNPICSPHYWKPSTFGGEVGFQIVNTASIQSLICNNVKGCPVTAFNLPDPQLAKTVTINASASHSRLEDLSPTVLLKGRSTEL
Sequence of Cyclin-dependent kinase 1/cyclin B1 (P06493 whole entry): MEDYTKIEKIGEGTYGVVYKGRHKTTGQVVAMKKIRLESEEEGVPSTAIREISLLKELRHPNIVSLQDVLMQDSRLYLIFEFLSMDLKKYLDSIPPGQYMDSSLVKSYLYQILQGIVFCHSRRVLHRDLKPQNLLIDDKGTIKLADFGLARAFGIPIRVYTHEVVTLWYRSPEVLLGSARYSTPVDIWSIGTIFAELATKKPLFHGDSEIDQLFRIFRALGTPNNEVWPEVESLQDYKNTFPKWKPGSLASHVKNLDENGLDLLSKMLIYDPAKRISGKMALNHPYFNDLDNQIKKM
Sequence of Cyclin-dependent kinase 1/cyclin B1 (P14635 whole entry, further chain): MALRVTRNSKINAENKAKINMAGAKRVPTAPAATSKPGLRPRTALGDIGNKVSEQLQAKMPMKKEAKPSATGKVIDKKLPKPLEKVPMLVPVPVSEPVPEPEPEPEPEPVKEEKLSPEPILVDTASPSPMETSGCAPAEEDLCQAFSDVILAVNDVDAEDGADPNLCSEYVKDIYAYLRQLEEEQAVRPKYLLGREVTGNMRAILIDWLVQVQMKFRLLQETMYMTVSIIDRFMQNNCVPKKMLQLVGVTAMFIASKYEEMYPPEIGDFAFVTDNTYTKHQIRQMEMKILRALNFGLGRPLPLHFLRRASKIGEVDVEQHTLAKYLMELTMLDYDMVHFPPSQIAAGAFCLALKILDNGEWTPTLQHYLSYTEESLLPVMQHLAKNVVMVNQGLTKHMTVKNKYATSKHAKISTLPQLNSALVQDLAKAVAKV

For `CC(C)Cc1ccc(C(C)C(=O)O)cc1` (configuration not stated) [IBUPROFEN], the UI [1] was 0.9.
In the case of `O=C1OC(c2ccccc2)=C/C1=C/c1ccc([N+](=O)[O-])cc1`, the “growth inhibition (GI)” value (Candida albicans [2]) is reported as 66%.
`COc1ccc(C2OC(=O)C(O)=C2I)cc1OC` (configuration not stated) gave an IC50 [3] of 10 µM, an IC50 [4] of 10 µM and an IC50 [5] of 10 µM.
`CS(=O)(=O)c1ccc(C2=C(c3ccc(F)c(F)c3)C(=O)OC2)cc1` gave an IC50 [6] of 2.8 µM, an IC50 [7] of 0.6 µM and an ED50 (Mus musculus) of 0.5 mg/kg.
`O=C1OC(O)C(/C=C/c2ccccc2)=C1F` (configuration not stated) gave an IC50 (Phospholipase A2) of 3 µM.
For `CC(C)Cc1ccc(C2=C/C(=C\c3ccc(Cl)cc3Cl)C(=O)O2)cc1`, the inhibition in vivo at 20 mg/kg (Rattus norvegicus) was 66.1%.
In the case of `CC1C=C(c2ccc(Cl)c(Cl)c2)C(=O)O1` (configuration not stated), the MIC (Aspergillus fumigatus [8]) is reported as 7.87 µM (≈ 1.91 µg/mL), the MIC (Nakaseomyces glabratus) is reported as > 125 µM and the MIC (Candida albicans [9]) is reported as 31.2 µM (≈ 7.6 µg/mL). For the same compound, the MIC (Aspergillus fumigatus [10]) was 7.6 µg/mL (≈ 31.3 µM), the MIC [11] was 31.2 µM (≈ 7.6 µg/mL) and the MIC (Candida tropicalis) was > 125 µM. It also gave an MIC (Trichosporon beigelii) of 31.2 µM (≈ 7.6 µg/mL), an MIC (Lichtheimia corymbifera [12]) of 7.6 µg/mL (≈ 31.3 µM) and an MIC (Lichtheimia corymbifera [13]) of 7.81 µM (≈ 1.9 µg/mL). The MIC (Pichia kudriavzevii) was > 125 µM.
In the case of `C/C(=C\c1occ2cc3oc(=O)ccc3cc12)C1=CC(=O)C(C)(C)O1`, the IC50 (MOLT-4F) is reported as 40 to 79 µM, the IC50 (L1210) is reported as 40 to 79 µM and the IC50 (MT4) is reported as 40 to 79 µM. The IC50 (CCRF-CEM) was 40 to 79 µM.
With `COC(=O)C[C@]1(O)OC(=O)C(C)=C1C` the MIC (Scedosporium boydii) was 0.15 µg/mL (≈ 0.749 µM), the MIC (Fusarium graminearum) was 2 µg/mL (≈ 9.99 µM) and the MIC (Pyricularia oryzae) was 1.25 µg/mL (≈ 6.24 µM). It also gave an MIC (Fusarium oxysporum) of 2.5 µg/mL (≈ 12.5 µM).
In the case of `O=C1OC(c2ccccc2)C(Cl)=C1Cl` (configuration not stated), the “inhibition (INH)” value (MAC16 [14]) is reported as 24%, the IC50 (MAC13) is reported as 50 µM and the IC50 (MAC16 [15]) is reported as 50 µM.
In the case of `COC(=O)C1=C(C)OC(C)(C)C1=O`, the activity at 20 min, 30 µM (CYP3A4) is reported as 57.1%.
